Source: patent US8383838B2, “5-oxo-2,3,4,5-tetrahydro-benzo[b]oxepine-4-carboxylic acid amides and 2,3-dihydro-benzo[b]oxepine-4-carboxylic acid amides for treatment and prevention of diabetes typ 1 and 2” (Merck Patent Gesellschaft mit Beschränkter Haftung, priority 2008, dated 2013)

Target: T1, human GK (Homo sapiens, UniProt P35557)
T1 sequence (P35557 1-465): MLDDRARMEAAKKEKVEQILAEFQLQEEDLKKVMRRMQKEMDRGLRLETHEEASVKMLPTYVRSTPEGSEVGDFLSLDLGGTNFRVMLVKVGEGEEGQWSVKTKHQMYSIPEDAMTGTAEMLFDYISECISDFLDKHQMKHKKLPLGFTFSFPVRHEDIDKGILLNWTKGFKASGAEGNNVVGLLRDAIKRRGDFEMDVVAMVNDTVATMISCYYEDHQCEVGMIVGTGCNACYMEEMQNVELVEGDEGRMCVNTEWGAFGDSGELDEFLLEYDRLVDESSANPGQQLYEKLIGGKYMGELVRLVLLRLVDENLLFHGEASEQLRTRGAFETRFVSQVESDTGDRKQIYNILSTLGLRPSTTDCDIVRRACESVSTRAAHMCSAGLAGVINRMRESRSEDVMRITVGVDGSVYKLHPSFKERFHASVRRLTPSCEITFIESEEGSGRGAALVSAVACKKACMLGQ
Experiment: Glucokinase Activation Screening Assay (coupled enzyme assay with PK and LDH)
Type: biochemical
Details: activation of human GK in percent of control (control incubation: 2 mM glucose, 0.91% DMSO); compound concentration not stated
Experimental: Glucokinase Activation Screening Assay
GK activity (human or rat enzyme) is measured by a coupled enzyme assay using pyruvate kinase (PK) and lactate dehydrogenase (LDH) as coupling enzymes. GK activity is calculated from the decline in NADH monitored photometrically with a microtiter plate (MTP) reader at 340 nm.
For screening purposes, the GK assay is routinely run in a 384-MTP format, in a total volume of 33 μl/well. 10 μl of the ATP-regeneration solution (in HEPES-buffer*, pH 7.0, 6.73 U/ml pyruvate kinase, 6.8 U/ml lactate dehydrogenase) and 10 μl of the glucokinase-/glucose solution (15 μg/ml, 6.6 mM glucose in HEPES-buffer*, pH 7.0; the concentration of the glucose stock-solution was 660 mM in Millipore H2O) were mixed together with […] of a 10% DMSO solution (in HEPES-buffer*, pH 7.0) containing 3.3-fold the amounts of the compounds to achieve final compound concentrations in the range between 1 nM to 30 μM (sometimes 300 μM) in the assay solution (s. below). The solutions were mixed for 5 sec, and after a centrifugation at 243×g for 5 min, the solutions were preincubated for 25 min at room temperature.
The reaction was started by the addition of 10 μl of the NADH-/ATP-solution (4.29 mM NADH, 4.95 mM ATP, in HEPES-buffer*). The MTP was shaken for 5 sec., and then, the absorbance at 340 nm was monitored continuously in a MTP-reader (TECAN Spectro fluor plus) for the next 27 min (with a MTP-cycling time of 199 sec.). The final concentrations of the various components were as follows: 49.5 mM Hepes, pH 7.0, 1.49 mM PEP, 1,3 mM NADH, 49.5 mM KCl, 4.96 mM MgCl2, 1.5 mM Mg-ATP, 1.98 mM DTT, 2.04 U/ml pyruvate kinase, 2.06 U/ml lactate-dehydrogenase, 0.91% DMSO, 0.15 μg/well glucokinase, and test compounds in the range between 1 nM and 300 μM.
The change in the optical density (ΔOD340 nm) in the presence of the compound was expressed relative to the ΔOD340 nm, ctrl of the control incubation (in the presence of 2 mM glucose and 0.91% DMSO), taking into account the optical density of the blank sample (incubation in the absence of 2 mM glucose). For the determination of the half maximal effective concentration (EC50), the %-Ctrl-values were plotted in a semi-logarithmic graph against the conc. of the compound of interest. The data points were fitted to a sigmoid curve function (f(x)=((%-Ctrlmax−%-Ctrlmin)/(1−(EC50/x **^n(Hill)))+%-Ctrlmin)) by a non-linear regression analysis.
* Hepes-buffer (50 mM Hepes, pH 7.0, 5 mM MgCl2, 50 mM KCl, 1.5 mM PEP, 0.1% BSA). DTT was added to the Hepes-buffer from a 200X stock solution (in Millipore H2O) freshly each day. The final concentration of DTT in the Hepes-buffer is 2 mM.

Question: With `O=C(Nc1ccccn1)C1CCOc2cc(Cl)c(Cl)cc2C1=O` (stereo not drawn) [Compound 1, 7,8-Dichloro-5-oxo-2,3,4,5-tetrahydro-benzo[b]oxepine-4-carboxylic acid pyridine-2-ylamide] as the molecule, how does the “hGK % CTL” value read?
Answer: 312 % CTL

Question: Which “hGK % CTL” value does the source give for `O=C(Nc1nccs1)C1CCOc2cc(F)ccc2C1=O` (stereo not drawn) [Compound 2, 8-Fluoro-5-oxo-2,3,4,5-tetrahydro-benzo[b]oxepine-4-carboxylic acid thiazol-2-ylamide] here?
Answer: 218 % CTL

Question: How did the “hGK % CTL” value turn out when `CCc1ccc2c(c1)OCCC(C(=O)Nc1ccccn1)C2=O` (stereo not drawn) [Compound 3, 8-Ethyl-5-oxo-2,3,4,5-tetrahydro-benzo[b]oxepine-4-carboxylic acid pyridine-2-ylamide] was run?
Answer: 291 % CTL

Question: With `O=C(Nc1ccccn1)C1=Cc2ccccc2OCC1` [Compound 4, 2,3-Dihydro-benzo[b]oxepine-4-carboxylic acid pyridin-2-ylamide] as the molecule, how does the “hGK % CTL” value read?
Answer: 129 % CTL

Question: How did the “hGK % CTL” value turn out when `O=C(Nc1ccccn1)C1CCOc2cc(Cl)ccc2C1=O` (stereo not drawn) [Compound 5, 8-Chloro-5-oxo-2,3,4,5-tetrahydro-benzo[b]oxepine-4-carboxylic acid pyridin-2-ylamide] was run?
Answer: 388 % CTL

Question: `O=C(Nc1ccccn1)C1CCOc2ccccc2C1=O` (stereo not drawn) [Compound 6, 5-Oxo-2,3,4,5-tetrahydro-benzo[b]oxepine-4-carboxylic acid pyridin-2-ylamide] was tested. Which “hGK % CTL” value did it give?
Answer: 245 % CTL

Question: With `O=C(Nc1nccs1)C1CCOc2cc(Cl)ccc2C1=O` (stereo not drawn) [Compound 7, 8-Chloro-5-oxo-2,3,4,5-tetrahydro-benzo[b]oxepine-4-carboxylic acid thiazol-2-ylamide] as the molecule, how does the “hGK % CTL” value read?
Answer: 215 % CTL

Question: How did the “hGK % CTL” value turn out when `O=C(Nc1nccs1)C1CCOc2cc(Cl)c(Cl)cc2C1=O` (stereo not drawn) [Compound 8, 7,8-Dichloro-5-oxo-2,3,4,5-tetrahydro-benzo[b]oxepine-4-carboxylic acid thiazol-2-ylamide] was run?
Answer: 194 % CTL

Question: For `CCc1ccc2c(c1)OCCC(C(=O)Nc1nccs1)C2=O` (stereo not drawn) [Compound 9, 8-Ethyl-5-oxo-2,3,4,5-tetrahydro-benzo[b]oxepine-4-carboxylic acid thiazol-2-ylamide], which “hGK % CTL” value is on record?
Answer: 207 % CTL

Question: How did the “hGK % CTL” value turn out when `O=C(Nc1ccccn1)C1CCOc2ccc(Cl)cc2C1=O` (stereo not drawn) [Compound 10, 7-Chloro-5-oxo-2,3,4,5-tetrahydro-benzo[b]oxepine-4-carboxylic acid pyridin-2-ylamide] was run?
Answer: 192 % CTL

Question: `O=C(Nc1nccs1)C1CCOc2ccc(Cl)cc2C1=O` (stereo not drawn) [Compound 11, 7-Chloro-5-oxo-2,3,4,5-tetrahydro-benzo[b]oxepine-4-carboxylic acid thiazol-2-ylamide] was tested. Which “hGK % CTL” value did it give?
Answer: 121 % CTL

Question: How did the “hGK % CTL” value turn out when `COc1ccc2c(c1)C(=O)C(C(=O)Nc1ccccn1)CCO2` (stereo not drawn) [Compound 12, 7-Methoxy-5-oxo-2,3,4,5-tetrahydro-benzo[b]oxepine-4-carboxylic acid pyridin-2-ylamide] was run?
Answer: 149 % CTL

Question: With `CC1(C)COc2cc(-c3ccc(F)cc3)ccc2C(=O)C1C(=O)Nc1ccccn1` (stereo not drawn) [Compound 13, 8-(4-Fluoro-phenyl)-3,3-dimethyl-5-oxo-2,3,4,5-tetrahydro-benzo[b]oxepine-4-carboxylic acid pyridin-2-ylamide] as the molecule, how does the “hGK % CTL” value read?
Answer: 124 % CTL

Question: `O=C(Nc1nccs1)C1CCOc2ccccc2C1=O` (stereo not drawn) [Compound 14, 5-Oxo-2,3,4,5-tetrahydro-benzo[b]oxepine-4-carboxylic acid thiazol-2-ylamide] was tested. Which “hGK % CTL” value did it give?
Answer: 115 % CTL

Question: `O=C(Nc1ccccn1)C1CCOc2ccc(Oc3ccccc3)cc2C1=O` (stereo not drawn) [Compound 15, 5-Oxo-7-phenoxy-2,3,4,5-tetrahydro-benzo[b]oxepine-4-carboxylic acid pyridin-2-ylamide] was tested. Which “hGK % CTL” value did it give?
Answer: 94 % CTL

Question: `CC1(C)COc2cc(Cl)c(F)cc2C(=O)C1C(=O)Nc1ccccn1` (stereo not drawn) [Compound 16, 8-Chloro-7-fluoro-3,3-dimethyl-5-oxo-2,3,4,5-tetrahydro-benzo[b]oxepine-4-carboxylic acid pyridin-2-ylamide] was tested. Which “hGK % CTL” value did it give?
Answer: 181 % CTL

Question: For `CCc1ccc2c(c1)OCC(C)(C)C(C(=O)Nc1ccccn1)C2=O` (stereo not drawn) [Compound 17, 8-Ethyl-3,3-dimethyl-5-oxo-2,3,4,5-tetrahydro-benzo[b]oxepine-4-carboxylic acid pyridin-2-ylamide], which “hGK % CTL” value is on record?
Answer: 104 % CTL

Question: Which “hGK % CTL” value does the source give for `O=C(Nc1nccs1)C1=Cc2ccccc2OCC1` [Compound 18, 2,3-Dihydro-benzo[b]oxepine-4-carboxylic acid thiazol-2-ylamide] here?
Answer: 161 % CTL
